In patent publication US8575091B1, “Amylin analogues and pharmaceutical compositions thereof” (Novo Nordisk A/S, priority 2012, dated 2013):
Like-named read-outs stand apart in the source and are kept apart here. Numbered stars: 1 amine (or outer) side, 2 acyl side, 3 side chain; on linkers, the order of the positions; unused ones are H or OH. Bridge positions count the residues as written; N and C are the ends. Side chains are listed from the residue outwards. Peptide text beside a SMILES is read from it. * marks the point of attachment. C20 diacid = O=C(O)CCCCCCCCCCCCCCCCCCC(=O)*; γGlu = O=C(O)[C@H](CCC(=O)[*:2])N[*:1]

Key:
[1] = biological target: T1, human calcitonin receptor (Homo sapiens, UniProt P30988); test: Assay (II)a functional assay, human calcitonin receptor (CRE luciferase, BHK cells);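 further: luminescence from a CRE-driven luciferase reporter, read by single photon counting after cells were exposed to test samples for 3 h at 37 °C under 5% CO2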; assay type: cell-based; details: read-out: hCTR funct. EC50
T1 construct: expressed in transfected cells
T1 sequence (P30988 25-474): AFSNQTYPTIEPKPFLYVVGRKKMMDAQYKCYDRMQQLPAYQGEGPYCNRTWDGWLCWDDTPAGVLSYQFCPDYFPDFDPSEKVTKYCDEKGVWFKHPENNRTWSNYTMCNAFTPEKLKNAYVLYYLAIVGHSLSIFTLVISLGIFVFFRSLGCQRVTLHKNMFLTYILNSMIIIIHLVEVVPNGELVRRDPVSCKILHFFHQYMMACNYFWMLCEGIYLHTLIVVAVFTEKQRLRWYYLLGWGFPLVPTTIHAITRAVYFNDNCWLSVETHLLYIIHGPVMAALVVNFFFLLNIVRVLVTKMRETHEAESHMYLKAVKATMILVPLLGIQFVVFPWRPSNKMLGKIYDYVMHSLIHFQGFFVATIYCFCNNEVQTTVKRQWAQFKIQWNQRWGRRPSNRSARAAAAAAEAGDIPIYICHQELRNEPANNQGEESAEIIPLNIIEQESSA

[2] = biological target: T2, human amylin receptor (amylin 3(a) receptor: human calcitonin receptor + RAMP-3) (Homo sapiens, UniProt O60896+P30988); test: Assay (II)a functional assay, human amylin receptor (CRE luciferase, BHK cells); assay type: cell-based; details: for EC50: read-out: hAmylin-R funct. EC50
T2 construct: expressed in transfected cells
T2 sequence (P30988 25-474): T1 sequence (P30988 25-474)
T2 sequence (O60896 24-148 partner): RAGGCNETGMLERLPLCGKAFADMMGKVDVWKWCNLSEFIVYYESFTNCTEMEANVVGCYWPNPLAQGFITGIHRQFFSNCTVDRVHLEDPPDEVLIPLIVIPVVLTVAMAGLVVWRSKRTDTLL

rat amylin receptor = biological target: T3, rat amylin receptor (Rattus norvegicus, UniProt P32214+Q9JJ73); test: Assay (VI) binding to the rat amylin receptor; details: rCTR bind IC50 divided by rAmylin-R bind IC50
T3 construct: expressed in transfected cells; host or cells: BHK tk'ts 13 (transient, FuGENE 6), membranes
T3 sequence (P32214 25-479 isoform P32214-2 limits assumed): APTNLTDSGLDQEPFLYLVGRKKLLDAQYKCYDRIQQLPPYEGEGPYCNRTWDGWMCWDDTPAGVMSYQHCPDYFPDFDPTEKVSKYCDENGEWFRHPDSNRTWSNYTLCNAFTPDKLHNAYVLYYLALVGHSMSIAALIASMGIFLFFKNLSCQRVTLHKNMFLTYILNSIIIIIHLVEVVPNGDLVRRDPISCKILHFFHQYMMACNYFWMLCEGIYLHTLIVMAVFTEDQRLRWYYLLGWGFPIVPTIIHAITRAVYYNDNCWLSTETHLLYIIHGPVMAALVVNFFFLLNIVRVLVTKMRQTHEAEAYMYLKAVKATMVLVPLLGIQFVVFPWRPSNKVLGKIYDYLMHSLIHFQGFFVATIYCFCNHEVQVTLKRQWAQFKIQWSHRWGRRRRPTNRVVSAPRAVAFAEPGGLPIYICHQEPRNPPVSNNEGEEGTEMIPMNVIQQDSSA
T3 sequence (Q9JJ73 23-147 partner): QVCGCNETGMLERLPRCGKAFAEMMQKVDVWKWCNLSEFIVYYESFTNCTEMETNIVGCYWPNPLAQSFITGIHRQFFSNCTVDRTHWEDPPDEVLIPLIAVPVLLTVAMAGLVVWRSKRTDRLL
Outline: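 Binding as in the human amylin receptor binding assay, but with membranes from BHK tk'ts 13 cells transiently co-transfected with rat calcitonin receptor and rat RAMP 3 […]. Membranes were prepared from cells harvested about 48 hours after transfection.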

[3] = biological target: T1, human calcitonin receptor; test: Assay (VII) binding to the human calcitonin receptor (SPA, 125I-Calcitonin); details: read-out: hCTR bind IC50;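 further: cell membranes coupled to SPA beads, competitive displacement read by scintillation counting, IC50 derived from a one-site competition fit as a measure of receptor affinity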
human amylin receptor = biological target: T4, human amylin receptor (Homo sapiens, UniProt O60896+P30988); test: Assay (V) binding to the human amylin receptor (SPA, 125I-rat amylin); details: for IC50: human amylin receptor membranes, SPA, read-out: hAmylin-R bind IC50
T4 construct: expressed in transfected cells
T4 sequence (P30988 25-474): T1 sequence (P30988 25-474)
T4 sequence (O60896 24-148 partner): T2 sequence (O60896 24-148 partner)
Outline: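 IC50, taken as receptor affinity, came from one-site binding competition analysis of scintillation proximity counts. Amylin 3(a)/CRE-luc cell membranes (35 ng/μL final) were mixed with SPA beads (0.05 mg/well) in 50 mM Hepes pH 7.4 containing CaCl2, MgCl2, 0.1% OA and 0.02% Tween20.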

[4] = Assay (IV) determination of solubility; assay type: physicochemical; details: for Solubility pH 6.5 Concentration (μM): pH 6.5, 18 hours room temperature; for Solubility pH 7.0 Concentration (μM): pH 7.0, 18 hours room temperature; for Solubility pH 7.5 Concentration (μM): pH 7.5, 18 hours room temperature; for Solubility pH 8.0 Concentration (μM): pH 8.0, 18 hours room temperature
Experimental: Assay (IV)—Determination of Solubility
The polypeptide was dissolved in water at ˜500 nmol/ml and mixed 1:1 with a series of buffers (100 mM glycylglycine pH 3.0, 100 mM glycylglycine pH 4.0, 100 mM glycylglycine pH 5.0, 100 mM bistrispropane pH 6.0, 100 mM bistrispropane pH 6.5, 100 mM bistrispropane pH 7.0, 100 mM bistrispropane pH 7.5, 100 mM bistrispropane pH 8.0). After 18 hours at room temperature the samples were centrifuged and the polypeptide concentration determined by UPLC.

[5] = Table 6, human functional selectivity (hCTR EC50 / hAmylin-R EC50)
[6] = Table 6a, human functional selectivity (hCTR EC50 / hAmylin-R EC50), at least 5
[7] = Table 6j, hCTR funct. EC50 / hAmylin-R funct. EC50
[8] = Table 6k, hCTR funct. EC50 / hAmylin-R funct. EC50

Row | Compound | EC50 [1] [nM] | Ratio hCT/hAmylin funct. [2, 5] | Ratio hCT/hAmylin funct. [2, 6] | Ratio hCT/hAmylin funct. [2, 7] | EC50 ([2]; Table 6j, human amylin receptor functional) [nM] | Ratio hCT/hAmylin funct. [2, 8] | Ratio rCT/rAmylin binding (rat amylin receptor; Table 7b) | Ratio rCT/rAmylin binding (rat amylin receptor; Table 7c) | Ratio rCT/rAmylin binding (rat amylin receptor) | IC50 [3] [nM] | IC50 (human amylin receptor) [nM] | Solubility pH 6.5 Concentration (μM) [4] | Solubility pH 7.0 Concentration (μM) [4] | Solubility pH 7.5 Concentration (μM) [4] [μM] | Solubility pH 8.0 Concentration (μM) [4] [μM] | EC50 ([2]; functional assay, human amylin receptor) [nM] | Ratio hCT/hAmylin binding (human amylin receptor; human binding ratio, included for comparison)
1 | CC[C@H](C)[C@H](NC(=O)[C@H](C)NC(=O)CNC(=O)[C@H](Cc1ccccc1)NC(=O)[C@H](CC(N)=O)NC(=O)[C@@H]1CCCN1C(=O)[C@H](CO)NC(=O)[C@H](CO)NC(=O)[C@H](Cc1c[nH]cn1)NC(=O)[C@H](CCCNC(=N)N)NC(=O)[C@H](CC(C)C)NC(=O)[C@H](Cc1ccccc1)NC(=O)[C@H](CC(N)=O)NC(=O)[C@H](C)NC(=O)[C@H](CC(C)C)NC(=O)[C@H](CCCNC(=N)N)NC(=O)[C@H](CCC(N)=O)NC(=O)[C@@H](NC(=O)[C@H](C)NC(=O)[C@@H]1CSSC[C@H](NC(=O)[C@H](CCCCN)NC(=O)CC[C@H](NC(=O)CCCCCCCCCCCCCCCCCCC(=O)O)C(=O)O)C(=O)N[C@@H](CC(N)=O)C(=O)N[C@@H]([C@@H](C)O)C(=O)N[C@@H](C)C(=O)N[C@@H]([C@@H](C)O)C(=O)N1)[C@@H](C)O)C(=O)N1CCC[C@H]1C(=O)N[C@@H](CO)C(=O)N[C@@H](CO)C(=O)N[C@H](C(=O)N[C@@H](CC(N)=O)C(=O)N[C@H](C(=O)NCC(=O)N[C@@H](CO)C(=O)N[C@@H](CCCCN)C(=O)N[C@H](C(=O)N[C@@H](Cc1ccc(O)cc1)C(N)=O)[C@@H](C)O)C(C)C)[C@@H](C)O [Example 34] | 2.62 | 8.4 | 8.4 | 8.4 | 0.313 | 8.4 | 52.0 | 52.0 | 52.0 | 73.4 | 1.14 | – | – | – | – | – | –
2 | CC[C@H](C)[C@H](NC(=O)[C@H](C)NC(=O)CNC(=O)[C@H](Cc1ccccc1)NC(=O)[C@H](CC(N)=O)NC(=O)[C@@H]1CCCN1C(=O)[C@H](CO)NC(=O)[C@H](CO)NC(=O)[C@H](Cc1c[nH]cn1)NC(=O)[C@H](CCCNC(=N)N)NC(=O)[C@H](CC(C)C)NC(=O)[C@H](Cc1ccccc1)NC(=O)[C@H](Cc1c[nH]cn1)NC(=O)[C@H](C)NC(=O)[C@H](CC(C)C)NC(=O)[C@H](CCCNC(=N)N)NC(=O)[C@H](CCC(N)=O)NC(=O)[C@@H](NC(=O)[C@H](C)NC(=O)[C@@H]1CSSC[C@H](NC(=O)[C@@H](N)CCCCNC(=O)CC[C@H](NC(=O)CCCCCCCCCCCCCCCCCCC(=O)O)C(=O)O)C(=O)N[C@@H](CC(N)=O)C(=O)N[C@@H]([C@@H](C)O)C(=O)N[C@@H](C)C(=O)N[C@@H]([C@@H](C)O)C(=O)N1)[C@@H](C)O)C(=O)N1CCC[C@H]1C(=O)N[C@@H](CO)C(=O)N[C@@H](CO)C(=O)N[C@H](C(=O)N[C@@H](CC(N)=O)C(=O)N[C@H](C(=O)NCC(=O)N[C@@H](CO)C(=O)N[C@@H](Cc1c[nH]cn1)C(=O)N[C@H](C(=O)N[C@@H](Cc1ccc(O)cc1)C(N)=O)[C@@H](C)O)C(C)C)[C@@H](C)O [Example 66] (H-K([γGlu-C20 diacid])CNTATCATQRLAHFLRHSSPNFGAIPSSTNVGSHTY-NH2; disulfide 2-7; N-terminus assumed) | – | – | – | – | – | – | – | – | – | – | – | ≧200 μM | ≧200 μM | 131 | 52 | – | –
3 | CC[C@H](C)[C@H](NC(=O)[C@H](C)NC(=O)CNC(=O)[C@H](Cc1ccccc1)NC(=O)[C@H](CC(N)=O)NC(=O)[C@@H]1CCCN1C(=O)[C@H](CO)NC(=O)[C@H](CO)NC(=O)[C@H](Cc1c[nH]cn1)NC(=O)[C@H](CCCNC(=N)N)NC(=O)[C@H](CC(C)C)NC(=O)[C@H](Cc1ccccc1)NC(=O)[C@H](CCC(=O)O)NC(=O)[C@H](C)NC(=O)[C@H](CC(C)C)NC(=O)[C@H](CCCNC(=N)N)NC(=O)[C@H](CCC(N)=O)NC(=O)[C@@H](NC(=O)[C@H](C)NC(=O)[C@@H]1CSSC[C@H](NC(=O)[C@@H](N)CCCCNC(=O)CC[C@H](NC(=O)CCCCCCCCCCCCCCCCCCC(=O)O)C(=O)O)C(=O)N[C@@H](CC(N)=O)C(=O)N[C@@H]([C@@H](C)O)C(=O)N[C@@H](C)C(=O)N[C@@H]([C@@H](C)O)C(=O)N1)[C@@H](C)O)C(=O)N1CCC[C@H]1C(=O)N[C@@H](CO)C(=O)N[C@@H](CO)C(=O)N[C@H](C(=O)N[C@@H](CC(N)=O)C(=O)N[C@H](C(=O)NCC(=O)N1CCC[C@H]1C(=O)N[C@@H](CC(N)=O)C(=O)N[C@H](C(=O)N1CCC[C@H]1C(N)=O)[C@@H](C)O)C(C)C)[C@@H](C)O [Example 114] (H-K([γGlu-C20 diacid])CNTATCATQRLAEFLRHSSPNFGAIPSSTNVGPNTP-NH2; disulfide 2-7) | 0.09 | 0.9 | – | – | – | – | – | – | 1.1 | 0.117 | 0.214 | – | – | – | – | 0.105 | 0.5
4 | CC[C@H](C)[C@H](NC(=O)[C@H](C)NC(=O)CNC(=O)[C@H](Cc1ccccc1)NC(=O)[C@H](CC(N)=O)NC(=O)[C@@H]1CCCN1C(=O)[C@H](CO)NC(=O)[C@H](CO)NC(=O)[C@H](Cc1c[nH]cn1)NC(=O)[C@H](CCCNC(=N)N)NC(=O)[C@H](CC(C)C)NC(=O)[C@H](Cc1ccccc1)NC(=O)[C@H](CC(N)=O)NC(=O)[C@H](C)NC(=O)[C@H](CC(C)C)NC(=O)[C@H](CCCNC(=N)N)NC(=O)[C@H](CCC(N)=O)NC(=O)[C@@H](NC(=O)[C@H](C)NC(=O)[C@@H]1CSSC[C@H](NC(=O)[C@@H](N)CCCCNC(=O)CC[C@H](NC(=O)CC[C@H](NC(=O)CCCCCCCCCCCCCCCCCCC(=O)O)C(=O)O)C(=O)O)C(=O)N[C@@H](CC(N)=O)C(=O)N[C@@H]([C@@H](C)O)C(=O)N[C@@H](C)C(=O)N[C@@H]([C@@H](C)O)C(=O)N1)[C@@H](C)O)C(=O)N1CCC[C@H]1C(=O)N[C@@H](CO)C(=O)N[C@@H](CO)C(=O)N[C@H](C(=O)N1CCC[C@H]1C(=O)N[C@H](C(=O)NCC(=O)N1CCC[C@H]1C(=O)N[C@@H](CCCNC(=N)N)C(=O)N[C@H](C(=O)N[C@@H](Cc1ccc(O)cc1)C(N)=O)[C@@H](C)O)C(C)C)[C@@H](C)O [Example 119] (H-K([γGlu-γGlu-C20 diacid])CNTATCATQRLANFLRHSSPNFGAIPSSTPVGPRTY-NH2; disulfide 2-7 (inferred); N-terminus and C-terminus assumed) | – | 26.0 | 26.0 | 26.0 | – | 26.0 | – | – | – | – | – | 174 μM | 182 μM | 112 | 32 | – | –
